Data on six molecules can be found in patent US6680336B2, “Cyclic AMP-specific phosphodiesterase inhibitors” (ICOS Corporation, priority 1999, dated 2004).

Usually IC50 stands for the concentration at which inhibition is half-maximal. For orientation: EC50 means the concentration needed to bring the measured effect to its halfway point. A high value points to lower potency in that assay.

Read-outs that look alike come from different tables or passages of the source.

For data set [1], the target named is T1, recombinant human PDE4.
T1 construct: PDE4 IC50; other: human recombinant PDE4
Kind of data set: PDE4 inhibition, charcoal separation [32P]cAMP phosphodiesterase assay. In kind it is biochemical. The protocol:
The compounds of structural formula (II) were tested for an ability to inhibit PDE4. The ability of a compound to inhibit PDE4 activity is related to the IC50 value for the compound, i.e., the concentration of inhibitor required for 50% inhibition of enzyme activity. The IC50 value for compounds of structural formula (II) were determined using recombinant human PDE4.
Recombinant production of human PDE1B, PDE2, PDE4A, PDE4B, PDE4C, PDE4D, PDE5, and PDE7 was carried out similarly to that described in Example 7 of U.S. Pat. No. 5,702,936, incorporated herein by reference, except that the yeast transformation vector employed, which is derived from the basic ADH2 plasmid described in Price et al., Methods in Enzymology, 185, pp. 308-318 (1990), incorporated yeast ADH2 promoter and terminator sequences and the Saccharomyces cerevisiae host was the protease-deficient strain BJ2-54 deposited on Aug. 31, 1998 with the American Type Culture Collection, Manassas, Va., under accession number ATCC 74465. Transformed host cells were grown in 2×SC-leu medium, pH 6.2, with trace metals, and vitamins. After 24 hours, YEP medium-containing glycerol was added to a final concentration of 2×YET/3% glycerol. Approximately 24 hr later, cells were harvested, washed, and stored at −70° C.
Phosphodiesterase activity of the preparations was determined as follows. PDE assays utilizing a charcoal separation technique were performed essentially as described in Loughney et al. (1996). In this assay, PDE activity converts [32P]cAMP or [32P]cGMP to the corresponding [32P]5′-AMP or [32P]5′-GMP in proportion to the amount of PDE activity present. The [32P]5′-AMP or [32P]5′-GMP then was quantitatively converted to free [32P]phosphate and unlabeled adenosine or guanosine by the action of snake venom 5′-nucleotidase. […] The assay was performed at 30° C. in a 100 μL reaction mixture containing (final concentrations) 40 mM Tris HCl (pH 8.0), 1 μM ZnSO4, 5 mM MgCl2, and 0.1 mg/mL bovine serum albumin (BSA). Alternatively, in assays assessing PDE1-specific activity, incubation mixtures further incorporated the use of 0.1 mM CaCl2 and 10 μg/mL calmodulin. PDE enzyme was present in quantities that yield <30% total hydrolysis of substrate (linear assay conditions). The assay was initiated by addition of substrate (1 mM [32P]cAMP or cGMP), and the mixture was incubated for 12 minutes. Seventy-five (75) μg of Crotalus atrox venom then was added, and the incubation was continued for 3 minutes (15 minutes total). The reaction was stopped by addition of 200 μL of activated charcoal (25 mg/mL suspension in 0.1 M […], pH 4). After centrifugation (750×g for 3 minutes) to sediment the charcoal, a sample of the supernatant was taken for radioactivity determination in a scintillation counter and the PDE activity was calculated.
Inhibitor analyses were performed similarly to the method described in Loughney et al., J. Biol. Chem., 271, pp. 796-806 (1996), except both cGMP and cAMP were used, and substrate concentrations were kept below 32 nM, which is far below the Km of the tested PDEs.

Data set [2] deals with TNFα secretion in human peripheral blood lymphocytes. Kind of data set: Lipopolysaccharide-stimulated TNFα release from human peripheral blood lymphocytes. In kind it is cell-based. The following applies: for EC50: Lymphocyte, LPS-stimulated TNFα release from human PBL. The protocol:
The compounds of structural formula (II) also were tested for an ability to reduce TNFα secretion in human peripheral blood lymphocytes. The ability to reduce TNFα secretion is related to the EC50 values i.e., the effective concentration pf the compound capable of inhibiting 50% of the total TNFα).
To assess the ability of a compound to reduce TNFα secretion in human peripheral blood lymphocytes (PBL), the following tests were performed.
Heparinized blood (approximately 30 mL) drawn from human volunteers was mixed 1:1 with Dulbecco's modified phosphate-buffered saline. This mixture was mixed 1:1 with HISTOPAQUE® and centrifuged at 1,500 rpm at room temperature without braking in the swinging bucket of a Beckman model TJ6 centrifuge. Erythrocytes were centrifuged to the bottom of the tubes, and serum remained at the surface of the tubes. A layer containing lymphocytes sedimented between the serum and HISTOPAQUE® layers, and was removed by aspiration to a fresh tube. The cells were quantified and adjusted to […] and a 100 μL aliquot is placed into the wells of a 96 well plate. Test compounds and RPMI media (Gibco/BRL Life Sciences) are added to each of the wells 15 minutes prior to addition of bacterial LPS ([…]). The mixture was allowed to incubate for 20 hours at 37° C. in a humidified chamber. The cells then were separated by centrifuging at 800 rpm for 5 minutes at room temperature. An aliquot of 180 μL of supernatant was transferred to a new plate for determination of TNFα concentration. TNFα protein in the cell supernatant fluids was measured using a commercially available enzyme-linked immunosorbent assay (ELISA) (CYTOSCREEN® Immunoassay Kit from Biosource International).
The cell-based assay provided the following results for various pyrrolidine compounds of the present invention. The EC50 values (i.e., effective concentration of the compound capable of inhibiting 50% of the total TNFα) illustrate the ability of the present compounds to inhibit LPS-stimulated TNFα release from human PBL.

Data set [3] deals with female Balb/c mice. The experiment in a line: Combined mouse endotoxin-stimulated TNFα release and locomotor activity assay (mobility). In kind it is in vivo. As for the experimental part: The purpose of this study was to determine the efficacy of PDE4 inhibitors in vivo in an LPS mouse model together with a determination with respect to central nervous system (CNS) side-effects manifested by a decrease in spontaneous mobility.
The test animals were female Balb/c mice, having an average weight of about 20 g. […] Individual dose volumes (about 150 μL) were adjusted based on the body weights measured. One hour later, 5 mg/kQ LPS in a final volume of 200 μL was injected via the tail vein to each animal. Ninety minutes following the LPS treatment, the animals were bled and serum samples were collected before being stored at −70° C. until assayed.
Movement of the X-Y plane, or rearing up on the hind legs, was quantified by counting the number of “light-beam” crosses per unit of time. A decrease in the number of activity events is directly proportional to the mobility or immobilization of the animal. The quantitative scoring correlated well with the subjective measurements described above.
The following table summarizes the mouse locomotor activity assay as mobility (% activity) obtained by the above-described method: […]

The conditions of data set [4]: in vivo; cited from earlier work.
For data set [5], the system named is recombinant human PDE4. The following applies: reported value; read-out: IC50 with respect to inhibiting recombinant human PDE4; cited from earlier work.

In the case of `COc1ccc(C2CN(Cc3ccccc3)C[C@@]2(C)C(C)N)cc1OC1CCCC1` (stereo partly shown) [Example 20], in data set [1], the half-maximal inhibitory concentration (IC50) stood at 22 nM. This molecule also displayed an EC50 in data set [2] of 198 nM. Moreover, the “Mobility (% activity at 50 mg/kg dose)” value in data set [3] came out at 93%.

`CNC(C)[C@]1(C)CN(C(=O)OC)C[C@H]1c1ccc(OC)c(OC2CCCC2)c1` (mixture of isomers) [Example 19, Methyl (3S,4S)-4-(3-cyclopentyloxy-4-methoxyphenyl)-3-methyl-3-[(methylamino)ethylpyrrolidine Carboxylate]: the IC50 in data set [1] was 51.7 nM. Also, the response in data set [2] was half-maximal at 59 nM (EC50). Besides, in data set [3], the “Mobility (% activity at 50 mg/kg dose)” value is recorded as 145%.

`COc1ccc([C@@H]2CNC(=O)C2)cc1OC1CCCC1` (single isomer, unassigned) [(−)-enantiomer of rolipram]: the “Emetic potential relative to the (+)-enantiomer” value in data set [4] is “about ten-fold more emetic than the (+)-enantiomer”.

For `COC(=O)N1CC(c2ccc(OC)c(OC3CCCC3)c2)C(C)(C(C)=O)C1` (stereo not shown) [structural formula (I)], in data set [5], the 50% inhibitory concentration (IC50) was about 2 nM.

Consider `COc1ccc([C@@H]2CN(Cc3ccccc3)C[C@@]2(C)C(C)N)cc1OC1CCCC1` (single isomer, unassigned) [Example 9], for which, in data set [1], the IC50 was found to be 57.5 nM. The molecule further came in with a half-maximal effective concentration (EC50) in data set [2] of 609 nM. For the same molecule, the “Mobility (% activity at 50 mg/kg dose)” value in data set [3] came to 55%.

Consider `COc1ccc(C2CNC(=O)C2)cc1OC1CCCC1` (stereo not shown) [Rolipram, reference compound], for which the “LPS-induced TNFα secretion from human lymphocytes” value in data set [2] (preliminary experiments) is listed as “inhibit LPS-induced TNFα secretion from human lymphocytes in a dose-dependent fashion”. Further, in data set [5], the IC50 was about 200 nM.
